Test results reported in the NIST ThermoML archive (doi:10.1016/j.tca.2005.10.008).
Numbers after ± are expanded uncertainties.

Key:
[1] = Liquid; for mass density: 101.33 kPa, Pycnometric method; for viscosity / speed of sound: 101.3 kPa; for viscosity: Capillary tube (Ostwald / Ubbelohde) method; for speed of sound: Linear variable-path acoustic interferometer; for Normal boiling temperature: Distillation
[2] = xn = mol fraction of the nth substance listed; details: 303.15 K, 101 kPa, Liquid; for viscosity: Capillary tube (Ostwald / Ubbelohde) method; for speed of sound: Linear variable-path acoustic interferometer; for excess molar volume: Direct dilatometry

CC(C)OC(C)C [diisopropyl ether]
[1]
Details	mass density [kg/m3]	speed of sound [m/s]	viscosity [mPa·s]
298.15 K	718.14 ± 0.74	–	–
303.15 K	711.97 ± 0.67	974.9 ± 3.3	0.35 ± 0.004

Details	Normal boiling temperature [°C]
[1]	68.20 ± 0.1

CCCCCCCC [octane]
[1]
Details	mass density [kg/m3]	speed of sound [m/s]	viscosity [mPa·s]
298.15 K	697.36 ± 0.73	–	–
303.15 K	692.56 ± 0.7	1152 ± 4	0.477 ± 0.005

Details	Normal boiling temperature [°C]
[1]	126.00 ± 0.1

CCCCCCC [heptane]
[1]
Details	mass density [kg/m3]	speed of sound [m/s]	viscosity [mPa·s]
298.15 K	678.93 ± 0.72	–	–
303.15 K	674.38 ± 0.71	1110.5 ± 3.7	0.387 ± 0.004

Details	Normal boiling temperature [°C]
[1]	98.20 ± 0.1

CC(C)OC(C)C [diisopropyl ether] + c1ccc2c(c1)CCCC2
[2], x1 = 1
Details	speed of sound [m/s]	viscosity [mPa·s]
–	974.9 ± 3.3	0.35 ± 0.004

CC(C)OC(C)C [diisopropyl ether] + C1CCCCC1
[2]
Details	excess molar volume [m3/mol]	speed of sound [m/s]	viscosity [mPa·s]
x1 = 0.118	3.2e-08 ± 8e-09	1187.4 ± 3.9	0.666 ± 0.007
x1 = 0.2172	4.7e-08 ± 8e-09	1157.7 ± 3.8	0.589 ± 0.006
x1 = 0.357	6.3e-08 ± 8e-09	1117.9 ± 3.7	0.513 ± 0.005
x1 = 0.3972	6.6e-08 ± 8e-09	1106.9 ± 3.7	0.494 ± 0.005
x1 = 0.5029	6.9e-08 ± 8e-09	1080.7 ± 3.6	0.452 ± 0.005
x1 = 0.6777	6.3e-08 ± 8e-09	1041.6 ± 3.5	0.403 ± 0.004
x1 = 0.8199	3.9e-08 ± 8e-09	1011.6 ± 3.4	0.373 ± 0.004
x1 = 1	–	974.9 ± 3.3	0.35 ± 0.004

CCCCCCCC [octane] + CC(C)OC(C)C
[2], x2 = 0
Details	speed of sound [m/s]	viscosity [mPa·s]
–	1152 ± 4	0.477 ± 0.005

C1CCCCC1 [cyclohexane]
[1]
Details	mass density [kg/m3]	speed of sound [m/s]	viscosity [mPa·s]
298.15 K	773.98 ± 1	–	–
303.15 K	769.14 ± 0.99	1231 ± 4	0.793 ± 0.008

Details	Normal boiling temperature [°C]
[1]	80.80 ± 0.1

CC(C)OC(C)C [diisopropyl ether] + CCCCCCCC
[2]
Details	excess molar volume [m3/mol]	speed of sound [m/s]	viscosity [mPa·s]
x1 = 0.165	1.58e-07 ± 8e-09	1125.5 ± 3.7	0.464 ± 0.005
x1 = 0.2501	2.26e-07 ± 8e-09	1112.3 ± 3.7	0.451 ± 0.005
x1 = 0.3816	2.95e-07 ± 8e-09	1090.5 ± 3.6	0.429 ± 0.005
x1 = 0.4395	3.04e-07 ± 8e-09	1080.3 ± 3.6	0.417 ± 0.005
x1 = 0.4911	3.02e-07 ± 8e-09	1071.7 ± 3.5	0.404 ± 0.004
x1 = 0.6217	2.78e-07 ± 8e-09	1048.3 ± 3.5	0.381 ± 0.004
x1 = 0.7805	2.03e-07 ± 8e-09	1018.9 ± 3.4	0.36 ± 0.004
x1 = 0.8706	1.26e-07 ± 8e-09	1000.4 ± 3.3	0.354 ± 0.004
x1 = 1	–	974.9 ± 3.3	0.35 ± 0.004

c1ccccc1 [benzene]
[1]
Details	mass density [kg/m3]	speed of sound [m/s]	viscosity [mPa·s]
298.15 K	873.64 ± 0.8	–	–
303.15 K	868.39 ± 0.9	1275.5 ± 4.2	0.566 ± 0.006

Details	Normal boiling temperature [°C]
[1]	80.00 ± 0.1

CC(C)OC(C)C [diisopropyl ether] + C1CCC2CCCCC2C1
[2], x1 = 1
Details	speed of sound [m/s]	viscosity [mPa·s]
–	974.9 ± 3.3	0.35 ± 0.004

CCCCCCC [heptane] + CC(C)OC(C)C
[2], x2 = 0
Details	speed of sound [m/s]	viscosity [mPa·s]
–	1110.5 ± 3.7	0.387 ± 0.004

c1ccc2c(c1)CCCC2 [1,2,3,4-tetrahydronaphthalene]
[1]
Details	mass density [kg/m3]	speed of sound [m/s]	viscosity [mPa·s]
298.15 K	965.89 ± 0.91	–	–
303.15 K	955.44 ± 0.9	1477 ± 5	1.749 ± 0.017

Details	Normal boiling temperature [°C]
[1]	208.30 ± 0.1

c1ccccc1 [benzene] + CC(C)OC(C)C
[2], x2 = 0
Details	speed of sound [m/s]	viscosity [mPa·s]
–	1275.5 ± 4.2	0.566 ± 0.006

C1CCCCC1 [cyclohexane] + CC(C)OC(C)C
[2], x2 = 0
Details	speed of sound [m/s]	viscosity [mPa·s]
–	1231 ± 4	0.793 ± 0.008

CC(C)OC(C)C [diisopropyl ether] + CCCCCC
[2]
Details	excess molar volume [m3/mol]	speed of sound [m/s]	viscosity [mPa·s]
x1 = 0.1305	1.37e-07 ± 8e-09	1039.2 ± 3.5	0.312 ± 0.004
x1 = 0.2555	2.45e-07 ± 8e-09	1027.5 ± 3.4	0.315 ± 0.004
x1 = 0.392	3.26e-07 ± 8e-09	1016 ± 3	0.319 ± 0.004
x1 = 0.4661	3.44e-07 ± 8e-09	1009.9 ± 3.4	0.321 ± 0.004
x1 = 0.5633	3.34e-07 ± 8e-09	1002.6 ± 3.3	0.325 ± 0.004
x1 = 0.605	3.25e-07 ± 8e-09	999.6 ± 3.3	0.326 ± 0.004
x1 = 0.7173	2.79e-07 ± 8e-09	992.4 ± 3.3	0.331 ± 0.004
x1 = 0.846	1.74e-07 ± 8e-09	984.4 ± 3.3	0.338 ± 0.004
x1 = 1	–	974.9 ± 3.3	0.35 ± 0.004

C1CCC2CCCCC2C1 (centres undefined) [decahydronaphthalene] + CC(C)OC(C)C
[2]
Details	excess molar volume [m3/mol]	speed of sound [m/s]	viscosity [mPa·s]
x2 = 0	–	1404 ± 5	2.091 ± 0.021
x2 = 0.1596	-4e-07 ± 8e-09	1329 ± 4	1.586 ± 0.015
x2 = 0.2785	-6.03e-07 ± 8e-09	1282.3 ± 4.2	1.289 ± 0.013
x2 = 0.4286	-7.39e-07 ± 8e-09	1220.1 ± 4	0.989 ± 0.01
x2 = 0.4734	-7.6e-07 ± 8e-09	1199.7 ± 3.9	0.913 ± 0.009
x2 = 0.6153	-7.24e-07 ± 8e-09	1141.3 ± 3.8	0.706 ± 0.007
x2 = 0.7514	-5.84e-07 ± 8e-09	1084.9 ± 3.6	0.553 ± 0.006
x2 = 0.8663	-3.59e-07 ± 8e-09	1035.8 ± 3.4	0.448 ± 0.005

CCCCCC [hexane]
[1]
Details	mass density [kg/m3]	speed of sound [m/s]	viscosity [mPa·s]
298.15 K	654.9 ± 0.7	–	–
303.15 K	650.64 ± 0.7	1052.9 ± 3.5	0.309 ± 0.004

Details	Normal boiling temperature [°C]
[1]	68.70 ± 0.1

CC(C)OC(C)C [diisopropyl ether] + CC(C)CC(C)(C)C
[2]
Details	excess molar volume [m3/mol]	speed of sound [m/s]	viscosity [mPa·s]
x1 = 0.1561	1.43e-07 ± 8e-09	1047.6 ± 3.5	0.441 ± 0.005
x1 = 0.2397	2.09e-07 ± 8e-09	1040.4 ± 3.5	0.432 ± 0.005
x1 = 0.3083	2.28e-07 ± 8e-09	1034.5 ± 3.4	0.422 ± 0.005
x1 = 0.4565	2.79e-07 ± 8e-09	1022.6 ± 3.4	0.405 ± 0.004
x1 = 0.4804	2.75e-07 ± 8e-09	1019.7 ± 3.4	0.4 ± 0.004
x1 = 0.6222	2.5e-07 ± 8e-09	1007.5 ± 3.4	0.38 ± 0.004
x1 = 0.8133	1.54e-07 ± 8e-09	991.1 ± 3.3	0.36 ± 0.004
x1 = 0.8775	1.24e-07 ± 8e-09	985.6 ± 3.3	0.355 ± 0.004
x1 = 1	–	974.9 ± 3.3	0.35 ± 0.004

CCCCCC [hexane] + CC(C)OC(C)C
[2], x2 = 0
Details	speed of sound [m/s]	viscosity [mPa·s]
–	1052.9 ± 3.5	0.309 ± 0.004

C1CCC2CCCCC2C1 (centres undefined) [decahydronaphthalene]
[1]
Details	mass density [kg/m3]	speed of sound [m/s]	viscosity [mPa·s]
298.15 K	879.14 ± 0.74	–	–
303.15 K	868.5 ± 0.74	1404 ± 5	2.091 ± 0.021

Details	Normal boiling temperature [°C]
[1]	191.10 ± 0.1

CC(C)OC(C)C [diisopropyl ether] + c1ccccc1
[2]
Details	excess molar volume [m3/mol]	speed of sound [m/s]	viscosity [mPa·s]
x1 = 0.0962	-1.61e-07 ± 8e-09	1232.1 ± 4	0.542 ± 0.006
x1 = 0.1813	-2.87e-07 ± 8e-09	1201.5 ± 3.9	0.522 ± 0.005
x1 = 0.3084	-4.17e-07 ± 8e-09	1159.2 ± 3.8	0.492 ± 0.005
x1 = 0.3375	-4.42e-07 ± 8e-09	1148.4 ± 3.8	0.486 ± 0.005
x1 = 0.4703	-4.86e-07 ± 8e-09	1108.5 ± 3.7	0.456 ± 0.005
x1 = 0.6323	-4.62e-07 ± 8e-09	1064.1 ± 3.5	0.422 ± 0.005
x1 = 0.7927	-3.32e-07 ± 8e-09	1022.2 ± 3.4	0.389 ± 0.004
x1 = 1	–	974.9 ± 3.3	0.35 ± 0.004

CC(C)OC(C)C [diisopropyl ether] + CCCCCCC
[2]
Details	excess molar volume [m3/mol]	speed of sound [m/s]	viscosity [mPa·s]
x1 = 0.1462	1.67e-07 ± 8e-09	1090.7 ± 3.6	0.385 ± 0.004
x1 = 0.2667	2.45e-07 ± 8e-09	1072.8 ± 3.6	0.377 ± 0.004
x1 = 0.4165	3.16e-07 ± 8e-09	1050.6 ± 3.5	0.365 ± 0.004
x1 = 0.4774	3.24e-07 ± 8e-09	1041.8 ± 3.5	0.359 ± 0.004
x1 = 0.5331	3.27e-07 ± 8e-09	1033.9 ± 3.4	0.356 ± 0.004
x1 = 0.6068	3.01e-07 ± 8e-09	1023.9 ± 3.4	0.352 ± 0.004
x1 = 0.7371	2.61e-07 ± 8e-09	1006.9 ± 3.4	0.346 ± 0.004
x1 = 0.8642	1.73e-07 ± 8e-09	991.3 ± 3.3	0.345 ± 0.004
x1 = 1	–	974.9 ± 3.3	0.35 ± 0.004

CC(C)CC(C)(C)C [2,2,4-trimethylpentane]
[1], 303.15 K
Details	speed of sound [m/s]	viscosity [mPa·s]
–	1060.8 ± 3.5	0.455 ± 0.005

c1ccc2c(c1)CCCC2 [1,2,3,4-tetrahydronaphthalene] + CC(C)OC(C)C
[2]
Details	excess molar volume [m3/mol]	speed of sound [m/s]	viscosity [mPa·s]
x2 = 0	–	1477 ± 5	1.749 ± 0.017
x2 = 0.1358	-7.08e-07 ± 8e-09	1396.1 ± 4.5	1.445 ± 0.014
x2 = 0.2509	-1.135e-06 ± 9e-09	1342.5 ± 4.4	1.223 ± 0.012
x2 = 0.3997	-1.459e-06 ± 9e-09	1276.3 ± 4.2	0.976 ± 0.01
x2 = 0.4474	-1.505e-06 ± 9e-09	1253 ± 4.1	0.904 ± 0.009
x2 = 0.5718	-1.503e-06 ± 9e-09	1191.8 ± 3.9	0.739 ± 0.007
x2 = 0.7163	-1.261e-06 ± 9e-09	1119.7 ± 3.7	0.578 ± 0.006
x2 = 0.8473	-8.13e-07 ± 8e-09	1054.2 ± 3.5	0.46 ± 0.005

CC(C)CC(C)(C)C [2,2,4-trimethylpentane] + CC(C)OC(C)C
[2], x2 = 0
Details	speed of sound [m/s]	viscosity [mPa·s]
–	1060.8 ± 3.5	0.455 ± 0.005
